Test results as given in US20250388574A1, “HETEROCYCLIC COMPOUNDS AS TRIGGERING RECEPTOR EXPRESSED ON MYELOID CELLS 2 AGONISTS AND METHODS OF USE” (AMGEN INC., priority 2020, published 2025).
Read-outs that look alike come from different tables or passages of the source.

Molecular target: hTREM2 (Homo sapiens, UniProt Q9NZC2)
Assay: Phospho-Syk AlphaScreen/AlphaLISA assay in TREM2 and DAP12 overexpressing HEK293 cells (Example A1)
Assay type: cell-based
Design: expressed in transfected cells
How it was run: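 Single-cell-cloned HEK293 stably overexpressing TREM2 and DAP12, plated 20,000 cells/well for 20 h, then exposed to compounds (1% DMSO) 45 min at room temperature. Lysates probed for phospho-Syk by AlphaLISA sandwich (anti-pSyk, biotinylated anti-Syk); signal normalized to percent of control (100 nM anti-TREM2 antibody vs isotype) and fitted by 4-parameter logistic.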

[1] = HEK293 cells, read-out: hTREM2 EC50

Sequence of hTREM2 (Q9NZC2 19-230): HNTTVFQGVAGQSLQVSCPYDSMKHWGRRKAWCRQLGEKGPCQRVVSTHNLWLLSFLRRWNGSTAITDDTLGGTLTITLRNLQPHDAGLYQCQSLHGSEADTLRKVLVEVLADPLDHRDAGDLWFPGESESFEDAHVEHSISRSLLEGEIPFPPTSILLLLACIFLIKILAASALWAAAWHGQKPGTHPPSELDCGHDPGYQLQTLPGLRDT
Sequence of hTREM2 (O43914 22-113 partner): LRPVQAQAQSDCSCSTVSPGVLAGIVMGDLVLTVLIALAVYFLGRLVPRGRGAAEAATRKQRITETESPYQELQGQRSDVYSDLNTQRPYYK

Emax (HEK293 cells)	EC50 [1]	Structure (SMILES)	EC50 (hTREM2 EC50, HEK293 cells)
++++ (Emax>300)	50 to 500 nM	Cc1ccc([C@@H]2CN(c3cc4nc(C)n(C)c(=O)c4c(-c4ccc(Cl)cc4F)n3)CCO2)cn1 (single isomer, unassigned) [Example 140]	–
++++ (Emax>300)	50 to 500 nM	Cc1nc2cc(N3CCO[C@H](c4ccncc4)C3)nc(-c3ccc(Cl)cc3F)c2c(=O)n1C [Example 226, (R)-5-(4-chloro-2-fluorophenyl)-2,3-dimethyl-7-(2-(pyridin-4-yl)morpholino)pyrido[4,3-d]pyrimidin-4(3H)-one]	–
+++ (Emax>200 and ≤300)	< 50 nM	Cc1nc2cc(N3CCO[C@@H](c4ccnc(C(F)(F)F)c4)C3)nc(-c3ccc(Cl)cc3F)c2c(=O)n1C [Example 266, (S)-5-(4-chloro-2-fluorophenyl)-2,3-dimethyl-7-(2-(2-(trifluoromethyl)pyridin-4-yl)morpholino)pyrido[4,3-d]pyrimidin-4(3H)-one]	–
+++ (Emax>200 and ≤300)	500 to 3000 nM	Cc1nc2cc(N3C[C@@H](c4cnn(C)c4)OC[C@H]3C)nc(-c3ccc(Cl)cc3F)c2c(=O)n1C (single isomer, unassigned) [Example 26]	–
+++ (Emax>200 and ≤300)	3000 to 100000 nM	Cc1nc2cc(N3CCO[C@@H](c4cccc(OC(F)(F)F)c4)C3)nc(-c3ccc(Cl)cc3F)c2c(=O)n1C (single isomer, unassigned) [Example 98]	–
++++ (Emax>300)	< 50 nM	Cc1nc2cc(N3CCO[C@@H](c4cnn(C5CCC5)c4)C3)nc(-c3ccc(Cl)cc3F)c2c(=O)n1C [Example 124, 5-(4-chloro-2-fluorophenyl)-7-((2S)-2-(1-cyclobutyl-1H-pyrazol-4-yl)-4-morpholinyl)-2,3-dimethylpyrido[4,3-d]pyrimidin-4(3H)-one]	–
++++ (Emax>300)	50 to 500 nM	Cc1nc2cc(N3CCO[C@H](c4cccc(C(F)(F)F)c4)C3)nc(-c3ccc(Cl)cc3F)c2c(=O)n1C (single isomer, unassigned) [Example 92]	–
++++ (Emax>300)	< 50 nM	C=Cn1cc([C@H]2CN(c3cc4nc(C)n(C)c(=O)c4c(-c4ccc(Cl)cc4F)n3)CCO2)cn1 [Example 137, 5-(4-chloro-2-fluorophenyl)-7-((2S)-2-(1-ethenyl-1H-pyrazol-4-yl)-4-morpholinyl)-2,3-dimethylpyrido[4,3-d]pyrimidin-4(3H)-one]	–
++++ (Emax>300)	3000 to 100000 nM	CCCn1c(C)nc2cc(N3CCO[C@H](c4cnn(C)c4)C3)nc(-c3ncc(Cl)cc3F)c2c1=O [Example 215, (R)-5-(5-chloro-3-fluoropyridin-2-yl)-2-methyl-7-(2-(1-methyl-1H-pyrazol-4-yl)morpholino)-3-propylpyrido[4,3-d]pyrimidin-4(3H)-one]	–
++++ (Emax>300)	50 to 500 nM	Cc1nc2cc(N3CCO[C@@H](c4cnn(C(F)(F)F)c4)C3)nc(-c3ccc(Cl)cc3F)c2c(=O)n1C [Example 141, 5-(4-chloro-2-fluorophenyl)-2,3-dimethyl-7-((2S)-2-(1-(trifluoromethyl)-1H-pyrazol-4-yl)-4-morpholinyl)pyrido[4,3-d]pyrimidin-4(3H)-one]	–
++++ (Emax>300)	50 to 500 nM	Cc1nc2cc(N3CCO[C@@H](c4cnn(C)c4)C3)nc(-c3ccc(Cl)cc3)c2c(=O)n1C [Example 5, 5-(4-chlorophenyl)-2,3-dimethyl-7-((2S)-2-(1-methyl-1H-pyrazol-4-yl)-4-morpholinyl)-pyrido[4,3-d]pyrimidin-4(3H)-one]	–
++ (Emax>100 and ≤200)	500 to 3000 nM	Cc1nc2cc(N3CCO[C@@H](c4cnn(C)c4)C3)nc(-c3ccc(Cl)cc3F)c2c(=O)[nH]1 [Example 145, 5-(4-chloro-2-fluorophenyl)-2-methyl-7-((2S)-2-(1-methyl-1H-pyrazol-4-yl)-4-morpholinyl)pyrido[4,3-d]pyrimidin-4(3H)-one]	–

Second part, the molecule before the results:

Structure (SMILES)	Emax (HEK293 cells)	EC50 [1]	EC50 (hTREM2 EC50, HEK293 cells)
Cc1nc2cc(N3CCO[C@@H](c4cnn(C)c4)C3)nc(C3CCCCC3)c2c(=O)n1C [Example 159, 5-cyclohexyl-2,3-dimethyl-7-((2S)-2-(1-methyl-1H-pyrazol-4-yl)-4-morpholinyl)pyrido[4,3-d]pyrimidin-4(3H)-one]	+++ (Emax>200 and ≤300)	500 to 3000 nM	–
CCCn1c(C)nc2cc(N3CCO[C@H](c4ccccc4)C3)nc(-c3ccc(Cl)cc3F)c2c1=O [Example 190, (R)-5-(4-chloro-2-fluorophenyl)-2-methyl-7-(2-phenylmorpholino)-3-propylpyrido[4,3-d]pyrimidin-4(3H)-one]	+++ (Emax>200 and ≤300)	500 to 3000 nM	–
Cc1ccc([C@@H]2C[C@@H](c3cc4nc(C)n(C)c(=O)c4c(-c4ccc(Cl)cc4F)n3)CCO2)cn1 [Example 272, 5-(4-chloro-2-fluorophenyl)-2,3-dimethyl-7-((2S,4S)-2-(6-methylpyridin-3-yl)tetrahydro-2H-pyran-4-yl)pyrido[4,3-d]pyrimidin-4(3H)-one]	++++ (Emax>300)	50 to 500 nM	–
Cc1nc2cc(N3CCc4cnn(C)c4C3)nc(-c3ccc(Cl)cc3F)c2c(=O)n1C [Example 104, 5-(4-chloro-2-fluorophenyl)-2,3-dimethyl-7-(1-methyl-1,4,5,7-tetrahydro-6H-pyrazolo[3,4-c]pyridin-6-yl)pyrido[4,3-d]pyrimidin-4(3H)-one]	++++ (Emax>300)	50 to 500 nM	–
CCn1c(C)nc2cc(N3CCO[C@H](c4noc(C)n4)C3)nc(-c3ccc(Cl)cc3F)c2c1=O [Example 147, 5-(4-chloro-2-fluorophenyl)-3-ethyl-2-methyl-7-((2S)-2-(5-methyl-1,2,4-oxadiazol-3-yl)-4-morpholinyl)pyrido[4,3-d]pyrimidin-4(3H)-one]	++++ (Emax>300)	50 to 500 nM	–
Cc1nc2cc(N3CC[C@H](n4cccn4)C3)nc(-c3ccc(Cl)cc3F)c2c(=O)n1C [Example 203, (S)-7-(3-(1H-pyrazol-1-yl)pyrrolidin-1-yl)-5-(4-chloro-2-fluorophenyl)-2,3-dimethylpyrido[4,3-d]pyrimidin-4(3H)-one]	+ (Emax>45 and ≤100)	3000 to 100000 nM	–
Cc1nc2cc(N3CCO[C@@H](c4cnn(C(F)CF)c4)C3)nc(-c3ccc(Cl)cc3F)c2c(=O)n1C (stereo partly drawn) [Example 135, 5-(4-chloro-2-fluorophenyl)-7-((2S)-2-(1-(1,2-difluoroethyl)-1H-pyrazol-4-yl)-4-morpholinyl)-2,3-dimethylpyrido[4,3-d]pyrimidin-4(3H)-one]	–	–	50 to 500 nM
Cc1nc2cc(N3CCO[C@H]([C@@H]4CCO4)C3)nc(-c3ccc(Cl)cc3F)c2c(=O)n1C [Example 269, 5-(4-chloro-2-fluorophenyl)-2,3-dimethyl-7-((S)-2-((S)-oxetan-2-yl)morpholino)pyrido[4,3-d]pyrimidin-4(3H)-one]	++++ (Emax>300)	500 to 3000 nM	–
Cc1cnn([C@H]2CCN(c3cc4nc(C)n(C)c(=O)c4c(-c4ccc(Cl)cc4F)n3)C2)c1 [Example 204, (S)-5-(4-chloro-2-fluorophenyl)-2,3-dimethyl-7-(3-(4-methyl-1H-pyrazol-1-yl)pyrrolidin-1-yl)pyrido[4,3-d]pyrimidin-4(3H)-one]	+ (Emax>45 and ≤100)	3000 to 100000 nM	–
